System: Jurkat T cells
Assay: mRNA sequencing of activated Jurkat T cells
Assay type: cell-based, human

C=CC[C@@H]1/C=C(\C)C[C@H](C)C[C@H](OC)[C@H]2O[C@@](O)(C(=O)C(=O)N3CCCC[C@H]3C(=O)O[C@H](/C(C)=C/[C@@H]3CC[C@@H](O)[C@H](OC)C3)[C@H](C)[C@@H](O)CC1=O)[C@H](C)C[C@@H]2OC [FK506, Tacrolimus, reference compound]
GPR108 FPKM (P+I): 31.682 FPKM
GPR183 FPKM (P+I): 5.776 FPKM
GRAP2 FPKM (P+I): 19.094 FPKM
GRK5 FPKM (P+I): 8.481 FPKM
GZMH FPKM (P+I): 7.694 FPKM
HAPLN3 FPKM (P+I): 48.4 FPKM
HDC FPKM (P+I): 26.3 FPKM
HHIP FPKM (P+I): 9.345 FPKM
HHIP-AS1 FPKM (P+I): 32.468 FPKM
HIVEP2 FPKM (P+I): 7.494 FPKM
HSP90B1 FPKM (P+I): 877.39 FPKM
HSP90B2P FPKM (P+I): 8.45 FPKM
HSPA5 FPKM (P+I): 373.499 FPKM
ICAM1 FPKM (P+I): 12.704 FPKM
ID2 FPKM (P+I): 13.425 FPKM
IER2 FPKM (P+I): 181.539 FPKM
IER3 FPKM (P+I): 31.73 FPKM
IFFO2 FPKM (P+I): 2.752 FPKM
IFIH1 FPKM (P+I): 11.544 FPKM
IFNG FPKM (P+I): 3.8 FPKM
IGLL1 FPKM (P+I): 3.429 FPKM
IGSF9B FPKM (P+I): 7.175 FPKM
IL2RA FPKM (P+I): 5.833 FPKM
IL3 FPKM (P+I): 0.062 FPKM
IL4I1 FPKM (P+I): 7.078 FPKM
IL16 FPKM (P+I): 10.552 FPKM
IL22 FPKM (P+I): 3.116 FPKM
IL23A FPKM (P+I): 12.207 FPKM
IMPA2 FPKM (P+I): 3.015 FPKM
IRF8 FPKM (P+I): 1.19 FPKM
IRF9 FPKM (P+I): 39.109 FPKM
ISM1 FPKM (P+I): 0.726 FPKM
JAK3 FPKM (P+I): 8.03 FPKM
JUN FPKM (P+I): 3.835 FPKM
JUNB FPKM (P+I): 55.036 FPKM
KBTBD11 FPKM (P+I): 2.434 FPKM
KCNK5 FPKM (P+I): 3.906 FPKM
KCTD11 FPKM (P+I): 3.399 FPKM
KIAA0922 FPKM (P+I): 12.92 FPKM
KIF1B FPKM (P+I): 11.727 FPKM
KIF3B FPKM (P+I): 13.87 FPKM
KLF2 FPKM (P+I): 1.971 FPKM
KSR1 FPKM (P+I): 4.79 FPKM
LAIR2 FPKM (P+I): 2.203 FPKM
LAMP3 FPKM (P+I): 6.412 FPKM
LAX1 FPKM (P+I): 8.052 FPKM
LDLRAP1 FPKM (P+I): 0.778 FPKM
LIME1 FPKM (P+I): 15.749 FPKM
LINC00152 FPKM (P+I): 32.822 FPKM
LINC00426 FPKM (P+I): 1.041 FPKM
LINC00528 FPKM (P+I): 5.759 FPKM
LINC00539 FPKM (P+I): 5.004 FPKM
LINC00977 FPKM (P+I): 0.741 FPKM
LOC729603 FPKM (P+I): 2.179 FPKM
LRRC8B FPKM (P+I): 3.555 FPKM
LRRC45 FPKM (P+I): 4.142 FPKM
LYPD3 FPKM (P+I): 2.727 FPKM
MAP2K3 FPKM (P+I): 41.815 FPKM
MAP2K6 FPKM (P+I): 1.149 FPKM
MBOAT2 FPKM (P+I): 3.773 FPKM
MCM4 FPKM (P+I): 26.368 FPKM
MCM5 FPKM (P+I): 37.057 FPKM
METRNL FPKM (P+I): 7.501 FPKM
MIR221 FPKM (P+I): 10.429 FPKM
MIR4435-1HG FPKM (P+I): 17.138 FPKM
MIR6891 FPKM (P+I): 24.428 FPKM
MMP10 FPKM (P+I): 11.973 FPKM
MRPL39 FPKM (P+I): 132.452 FPKM
MYO1D FPKM (P+I): 4.59 FPKM
MYO1G FPKM (P+I): 98.59 FPKM
MYO7B FPKM (P+I): 15.796 FPKM
NAMPT FPKM (P+I): 34.628 FPKM
NDFIP1 FPKM (P+I): 22.485 FPKM
NDFIP2 FPKM (P+I): 13.13 FPKM
NDST3 FPKM (P+I): 10.369 FPKM
NEIL3 FPKM (P+I): 9.418 FPKM
NEXN FPKM (P+I): 3.661 FPKM
NFE2L3 FPKM (P+I): 15.944 FPKM
NFKBIA FPKM (P+I): 39.193 FPKM
NFKBID FPKM (P+I): 6.668 FPKM
NFKBIE FPKM (P+I): 11.399 FPKM
NINJ1 FPKM (P+I): 11.769 FPKM
NKD2 FPKM (P+I): 3.385 FPKM
NKX3-1 FPKM (P+I): 7.464 FPKM
NLRC5 FPKM (P+I): 38.784 FPKM
NPY FPKM (P+I): 4.771 FPKM
NR4A1 FPKM (P+I): 52.553 FPKM
NR4A2 FPKM (P+I): 0.04 FPKM
NRROS FPKM (P+I): 36.775 FPKM
NT5M FPKM (P+I): 1.582 FPKM
NXN FPKM (P+I): 2.574 FPKM
OAS3 FPKM (P+I): 13.085 FPKM
OSBPL3 FPKM (P+I): 24.517 FPKM
PARP9 FPKM (P+I): 84.306 FPKM
PARP14 FPKM (P+I): 65.432 FPKM
PCBP3 FPKM (P+I): 4.527 FPKM
PDE3B FPKM (P+I): 9.108 FPKM
PEAK1 FPKM (P+I): 5.442 FPKM
PELI1 FPKM (P+I): 8.175 FPKM
PHEX FPKM (P+I): 0.213 FPKM
PHF7 FPKM (P+I): 3.968 FPKM
PHLDA1 FPKM (P+I): 65.703 FPKM
PIDD1 FPKM (P+I): 5.28 FPKM
PIM3 FPKM (P+I): 42.827 FPKM
PKIA FPKM (P+I): 13.962 FPKM
PLAU FPKM (P+I): 45.171 FPKM
PLEKHO1 FPKM (P+I): 47.519 FPKM
PLK3 FPKM (P+I): 5.257 FPKM
PMAIP1 FPKM (P+I): 26.095 FPKM
PMEPA1 FPKM (P+I): 3.548 FPKM
PODXL FPKM (P+I): 1.86 FPKM
POU3F2 FPKM (P+I): 1.044 FPKM
PPFIBP1 FPKM (P+I): 12.205 FPKM
PPM1H FPKM (P+I): 4.492 FPKM
PRKCA FPKM (P+I): 14.104 FPKM
PTK2 FPKM (P+I): 13.215 FPKM
PTPN22 FPKM (P+I): 6.37 FPKM
PTPRE FPKM (P+I): 14.031 FPKM
PWWP2B FPKM (P+I): 2.769 FPKM
PXMP2 FPKM (P+I): 5.624 FPKM
RAG1 FPKM (P+I): 0.251 FPKM
RAG2 FPKM (P+I): 0.173 FPKM
RAP1GAP2 FPKM (P+I): 0.368 FPKM
RAP1GAP FPKM (P+I): 1.878 FPKM
RDH10 FPKM (P+I): 5.856 FPKM
REL FPKM (P+I): 4.749 FPKM
RELB FPKM (P+I): 29.337 FPKM
RGS3 FPKM (P+I): 2.142 FPKM
RGS16 FPKM (P+I): 1.172 FPKM
RMI1 FPKM (P+I): 8.984 FPKM
RORB FPKM (P+I): 3.782 FPKM
S1PR1 FPKM (P+I): 0.737 FPKM
SAMD1 FPKM (P+I): 15.561 FPKM
SECISBP2L FPKM (P+I): 13.57 FPKM
SELPLG FPKM (P+I): 5.062 FPKM
SEMA7A FPKM (P+I): 26.567 FPKM
SERPINB2 FPKM (P+I): 2.905 FPKM
SERPINE1 FPKM (P+I): 6.785 FPKM
SH2B3 FPKM (P+I): 13.899 FPKM
SH2D5 FPKM (P+I): 1.469 FPKM
SH3BGRL3 FPKM (P+I): 408.163 FPKM
SH3RF2 FPKM (P+I): 27.941 FPKM
SHC4 FPKM (P+I): 0.663 FPKM
SIT1 FPKM (P+I): 48.56 FPKM
SIX6 FPKM (P+I): 15.688 FPKM
SLC2A3 FPKM (P+I): 45.525 FPKM
SLC2A4RG FPKM (P+I): 2.367 FPKM
SLC7A5 FPKM (P+I): 207.842 FPKM
SLC25A45 FPKM (P+I): 3.26 FPKM
SLCO3A1 FPKM (P+I): 3.481 FPKM
SLIT1 FPKM (P+I): 2.6 FPKM
SMIM14 FPKM (P+I): 7.677 FPKM
SOCS1 FPKM (P+I): 9.708 FPKM
SOCS3 FPKM (P+I): 8.922 FPKM
SOSTDC1 FPKM (P+I): 8.472 FPKM
SPRY2 FPKM (P+I): 16.882 FPKM
SREBF1 FPKM (P+I): 14.076 FPKM
ST3GAL6-AS1 FPKM (P+I): 9.039 FPKM
ST8SIA4 FPKM (P+I): 11.077 FPKM
STARD4 FPKM (P+I): 20.118 FPKM
STAT1 FPKM (P+I): 611.139 FPKM
STAT5A FPKM (P+I): 3.347 FPKM
STX11 FPKM (P+I): 2.733 FPKM
SYTL1 FPKM (P+I): 15.004 FPKM
TBC1D10C FPKM (P+I): 23.871 FPKM
TBC1D20 FPKM (P+I): 17.7 FPKM
TBX21 FPKM (P+I): 24.784 FPKM
THY1 FPKM (P+I): 3.994 FPKM
TIMP2 FPKM (P+I): 1.948 FPKM
TM4SF1 FPKM (P+I): 0.439 FPKM
TM7SF3 FPKM (P+I): 29.483 FPKM
TMEM229B FPKM (P+I): 6.813 FPKM
TMTC4 FPKM (P+I): 2.677 FPKM
TNFRSF4 FPKM (P+I): 2.933 FPKM
TNFRSF12A FPKM (P+I): 8.559 FPKM
TNFRSF14 FPKM (P+I): 12.35 FPKM
TNFSF9 FPKM (P+I): 2.568 FPKM
TNRC6C FPKM (P+I): 4.711 FPKM
TNS3 FPKM (P+I): 0.678 FPKM
TRAF1 FPKM (P+I): 11.176 FPKM
TRAT1 FPKM (P+I): 7.968 FPKM
TRIM22 FPKM (P+I): 2.908 FPKM
TSHR FPKM (P+I): 1.535 FPKM
TSPAN2 FPKM (P+I): 2.414 FPKM
TSPAN7 FPKM (P+I): 44.718 FPKM
TTC28 FPKM (P+I): 2.798 FPKM
TUBB2A FPKM (P+I): 7.594 FPKM
TUBB3 FPKM (P+I): 9.713 FPKM
UHRF1BP1L FPKM (P+I): 7.474 FPKM
USP30-AS1 FPKM (P+I): 6.464 FPKM
VANGL1 FPKM (P+I): 9.553 FPKM
VASH2 FPKM (P+I): 5.761 FPKM
VGF FPKM (P+I): 59.749 FPKM
XAF1 FPKM (P+I): 15.924 FPKM
XBP1 FPKM (P+I): 43.828 FPKM
XYLB FPKM (P+I): 1.506 FPKM
YBX2 FPKM (P+I): 1.555 FPKM
ZC3H12A FPKM (P+I): 13.36 FPKM
CD27 and CD70 expression (upon T-cell activation): inhibited CD27 and CD70
RNA levels of representative T-cell activation markers (IL2, IL3, NFATC1, CCL4, CCL20, CXCL8) (upon T-cell activation): reduced RNA levels of representative T-cell activation markers

— patent publication US20240376163A1, “PEPTIDE FOR INHIBITING CALCINEURIN AND USE THEREOF” (Seoul National University R&DB Foundation, priority 2023, published 2024)
